Laboratory results as given in BindingDB's records for doi:10.1016/j.bmcl.2007.05.021 (Yale University, 2007).

Target: Transcription factor Jun (Homo sapiens, UniProt P05412)
Test: Inhibition of AP1-mediated gene transcription in HepG2 cells by luciferase reporter gene assay

Sequence of Transcription factor Jun (P05412 whole entry): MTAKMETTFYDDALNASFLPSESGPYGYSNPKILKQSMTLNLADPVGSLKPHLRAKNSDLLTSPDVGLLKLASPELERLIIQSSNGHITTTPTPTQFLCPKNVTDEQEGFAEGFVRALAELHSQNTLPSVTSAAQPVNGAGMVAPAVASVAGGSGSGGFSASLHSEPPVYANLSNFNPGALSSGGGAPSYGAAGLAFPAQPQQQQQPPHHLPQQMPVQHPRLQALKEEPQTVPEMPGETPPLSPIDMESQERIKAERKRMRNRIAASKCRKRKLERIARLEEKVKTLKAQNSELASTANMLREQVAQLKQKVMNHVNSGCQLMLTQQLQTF

SMILES	IC50 [nM]
COc1cc2c3c(c4cc(OC)c(OC)cc4c2cc1OC)[C@@H](O)[C@@H]1CCCN1C3 [(12aS,13R)-2,3,6,7-tetramethoxy-9,10,11,12,12a,13-hexahydro-9a-aza-cyclopenta[b]triphenylen-13-ol]	> 300
COc1cc2c3c(c4cc(OC)c(OC)cc4c2cc1O)CN1CCC[C@H]1[C@H]3O [(12aS,13S)-2,6,7-trimethoxy-9,10,11,12,12a,13-hexahydro-9a-aza-cyclopenta[b]triphenylene-3,13-diol]	> 1000
COc1cc2c(cc1OC)-c1cc(OC)c(OC)cc1C1CN3CCC[C@H]3C=C21 (stereo partly drawn) [(S)-2,3,6,7-tetramethoxy-8b,9,10,11,12,12a-hexahydro-9a-aza-cyclopenta[b]triphenylene]	> 300
COc1ccc2c3c(c4cc(OC)c(O)cc4c2c1)CN1CCC[C@@H]1C3 [[(R)-(+)-deoxytylophorinidine]	68
COc1ccc2c3c(c4cc(OC)c(O)cc4c2c1)C[N+]1([O-])CCC[C@H]1[C@H]3O (stereo partly drawn) [tylophoridicine C]	> 3000
COc1ccc2c3c(c4cc(OC)c(OC)cc4c2c1)C[N+]1([O-])CCC[C@H]1[C@@H]3O (stereo partly drawn) [tylophoridicine F]	> 3000
COc1ccc2c3c(c4cc(OC)c(O)cc4c2c1)CN1CCC[C@H]1[C@H]3O [tylophorinidine]	65
COc1ccc2c3c(c4cc(OC)c(OC)cc4c2c1)CN1CCC[C@H]1[C@@H]3O [tylophorinine]	110
